Measured values taken from patent publication US7354739B2, “TML polynucleotides” (ZymoGenetics, Inc., priority 1997, dated 2008).

Experiments:
[1] = tested on: antral portion of the stomach; test: Antral stomach contractions monitored by transducing crystals in anesthetized rats; format: in vivo, Sprague-Dawley rats
Source text: Two male Sprague-Dawley rats, approximately 12 weeks old (Harlan, Indianapolis, Ind.) were anesthetized with urethane and their stomachs were exposed through a small abdominal incision. Two 2.4 mm transducing crystals (Sonometrics, Ontario, Canada) were placed on the antral portion of the stomach such that circular contractions could be monitored as a change in the distance between the two crystals. The crystals were attached with VETBOND TISSUE ADHESIVE (3M, St. Paul, Minn.).
The amplitude of the NE-induced decrease was approximately 50% of the acetylcholine-induced increase in distance. Both responses were transient.
A negative control of 10 μl of phosphate buffer solution (PBS) applied topically between the crystals had no effect.
A 14 amino acid zsig33 peptide (from amino acid residue 24 (Gly) to amino acid residue 37 (Gln) of SEQ ID NO: 2) was dissolved in PBS) and 10 μl was applied topically for a final concentration of 1 μg, […]

[2] = Fourteen-day twice-daily oral dosing in ob/ob mice: body weight, food intake, glucose clearance; format: in vivo; details: 1 μg/mouse orally twice daily for fourteen days
Method: Sixteen female ob/ob mice, 8 weeks old, (Jackson Labs, Bar Harbor, Me.) were adapted to a special 4 hour daily feeding schedule for two weeks. The were fed ad libitum from 7:30-11:30 am daily. After two weeks on the feeding schedule, the mice were divided into two groups of 8. One group was given 1.0 μg/mouse of zsig33-1 (14 amino acid peptide) and the other vehicle (a 14 amino acid scrambled sequence peptide) in 100 μl sterile 0.1% BSQA by oral gavage just prior to receiving food, and at the end of the 4 hour feeding period. The mice were […] twice daily for fourteen days, during which time food intake and body weight was measured daily. On day 14, immediately after the second oral gavage of the zsig33-1 peptide, the mice were challenged orally with an 0.5 ml volume of 25% glucose. Retro-orbital bleeds were done to determine serum glucose levels immediately prior to administration of the zsig33-1 peptide or vehicle ([…].), and also at 0, 1, 2, and 4 hours following the glucose challenge.

[3] = tested on: post-prandial glucose absorption; test: Oral glucose challenge after oral zsig33 peptide in ob/ob mice; format: in vivo; details: 100 μg orally, 30 minutes prior to an oral glucose challenge
Method: Eight female ob/ob mice, approximately 6 weeks old (Jackson Labs, Bar Harbor, Me.) were adapted to a 4 hour daily feeding schedule for two weeks. After two weeks on the feeding schedule, the mice were give 100 μg of a 14 amino acid amino zsig33 peptide (from amino acid residue 24 (Gly) to amino acid residue 37 (Gln) of SEQ ID NO: 2) in 100 μl sterile 0.1% BSA by oral gavage, immediately after their eating period (post-prandially). Thirty minutes later, the mice were challenged orally with a 0.5 ml volume of 25% glucose. Retroorbital bleeds were done to determine serum glucose levels. Blood was drawn prior to zsig33 dosing, prior to oral glucose challenge, and at 1, 2, 4, and 20 hours following the glucose challenge.

[4] = tested on: stomach; test: Transit of phenol red through the stomach (gastric emptying) of fasted rats; format: in vivo, Sprague-Dawley rats; details: 1 μg applied topically to the stomach; 30 minutes after gavage; compared to a scrambled peptide
Method: The effect of topically applied zsig33 peptide (amino acid 24 to 37 of SEQ ID NO: 2) on the transit of phenol red through the stomachs of fasted male Sprague-Dawley rats (Harlan, Indianapolis, Ind.) was evaluated. The rats (6 animals, 8 weeks old) were fasted 24 hrs prior to being anesthetized with urethane(0.5 ml/100 grams of 25% solution). After anesthetizing, the animals were orally gavaged with 1 ml of Phenol Red solution (50 mg/ml in 2% methylcellulose solution). The stomach of each animal was exposed through a small abdominal incision and either 1 μg zsig33 peptide or a 14 amino acid control of a scrambled sequence peptide was applied topically to the stomach five minutes following the gavage. The amount of Phenol Red remaining in the stomach was determined by measuring optical density of the extracted stomach contents 30 minutes after the gavage.

Row | Molecule | amplitude of the NE-induced decrease relative to the acetylcholine-induced increase in distance ([1]; 10 μl of 1 μM applied topically) | change in the distance between the two crystals ([1]; 10 μl of 1 μM applied topically to the stomach between the crystals) | daily body weight [2] | food intake [2] | post-prandial glucose absorption (serum glucose) [3] | reduction of the amount of Phenol Red remaining in the stomach [4] | change in crystal distance ([1]; 1 μg in 10 μl PBS applied topically) | rate and amplitude of the contractions (dose dependence) ([1]; 10 μg and 100 μg applied topically, compared with 1 μg)
1 | NC[C@H](O)c1ccc(O)c(O)c1 [norepinephrine, reference compound] | approximately 50% | reduction in the distance between the two crystals | – | – | – | – | – | –
2 | zsig33-1: peptide corresponding to amino acid residue 24 (Gly) to residue 37 (Gln) of SEQ ID NO: 2; residues 1 to 14 of SEQ ID NO:11 (GSSFLSPEHQRVQQRKES; listed as Homo sapiens) | – | – | no affect | no affect | enhanced post-prandial glucose absorption | approximately 25% | sustained, rhythmic increase and decrease in crystal distance | enhanced responses in both rate and amplitude
